Data as given in PMC9279378, “Mode of action of fluopyram in plant-parasitic nematodes” (Scientific Reports, 2022).

Tests used:
Conditions in all cases: pH 7.2; 20 µM decylubiquinone, 100 µM DCPIP, 0.33% succinate, 1 µM antimycin, 4% DMSO
[1] = biological target: T1, C. elegans SDH (mitochondrial complex II) (Caenorhabditis elegans, UniProt O62215+P41956+Q09545); assay: succinate:ubiquinone reductase assay, DCPIP reduction at […] nm, mitochondrial protein; type: biochemical
T1 construct: gene sdhb-1; native complex II in mitochondrial preparation; wild-type strain N2 named for cultures, not explicitly for the mitochondria; with Succinate dehydrogenase [ubiquinone] flavoprotein subunit, mitochondrial
T1 sequence (Q09545 36-298): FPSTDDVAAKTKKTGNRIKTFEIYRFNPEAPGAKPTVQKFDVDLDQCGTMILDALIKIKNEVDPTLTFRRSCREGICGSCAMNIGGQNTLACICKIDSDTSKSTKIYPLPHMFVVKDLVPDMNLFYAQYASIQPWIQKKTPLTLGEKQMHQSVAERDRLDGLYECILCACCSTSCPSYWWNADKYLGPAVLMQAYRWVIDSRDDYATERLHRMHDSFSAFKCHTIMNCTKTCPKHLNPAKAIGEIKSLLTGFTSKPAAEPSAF
T1 sequence (P41956 31-182): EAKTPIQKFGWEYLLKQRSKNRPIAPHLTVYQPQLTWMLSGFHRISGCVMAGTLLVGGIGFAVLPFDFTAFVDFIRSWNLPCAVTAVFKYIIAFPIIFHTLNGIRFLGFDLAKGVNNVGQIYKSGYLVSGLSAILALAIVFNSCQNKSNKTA
T1 sequence (O62215 32-145): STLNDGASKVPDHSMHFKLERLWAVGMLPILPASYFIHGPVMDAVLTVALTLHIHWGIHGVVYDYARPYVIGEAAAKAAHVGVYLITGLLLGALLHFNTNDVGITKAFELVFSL
T1 sequence (Q09508 32-646 partner): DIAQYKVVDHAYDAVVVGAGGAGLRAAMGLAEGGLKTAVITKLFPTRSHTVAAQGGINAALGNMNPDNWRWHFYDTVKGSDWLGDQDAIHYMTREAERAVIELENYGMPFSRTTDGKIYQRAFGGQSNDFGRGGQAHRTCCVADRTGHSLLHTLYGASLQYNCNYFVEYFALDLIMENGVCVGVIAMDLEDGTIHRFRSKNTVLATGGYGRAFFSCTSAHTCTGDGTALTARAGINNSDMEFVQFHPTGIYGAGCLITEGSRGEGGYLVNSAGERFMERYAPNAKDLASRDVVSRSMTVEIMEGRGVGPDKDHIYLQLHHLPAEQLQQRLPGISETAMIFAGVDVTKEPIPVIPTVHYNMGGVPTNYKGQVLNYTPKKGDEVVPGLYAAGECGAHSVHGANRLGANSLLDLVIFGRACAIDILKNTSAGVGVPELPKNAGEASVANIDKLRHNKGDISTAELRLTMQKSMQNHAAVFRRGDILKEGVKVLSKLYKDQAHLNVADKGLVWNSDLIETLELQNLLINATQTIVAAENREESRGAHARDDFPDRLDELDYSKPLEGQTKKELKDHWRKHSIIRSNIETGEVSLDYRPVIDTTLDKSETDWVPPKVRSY

[2] = biological target: T2, SDH (mitochondrial complex II) of earthworm; assay: as above; type: biochemical, Eisenia andrei
T2 construct: gene SDHB; native complex II in mitochondrial preparation from earthworm; with Succinate dehydrogenase [ubiquinone] flavoprotein subunit, mitochondrial

[3] = biological target: T3, SDH (mitochondrial complex II) of rat (Rattus norvegicus, UniProt P21913+Q641Z9+Q6PCT8)
T3 construct: gene Sdhb
T3 sequence (P21913 31-282): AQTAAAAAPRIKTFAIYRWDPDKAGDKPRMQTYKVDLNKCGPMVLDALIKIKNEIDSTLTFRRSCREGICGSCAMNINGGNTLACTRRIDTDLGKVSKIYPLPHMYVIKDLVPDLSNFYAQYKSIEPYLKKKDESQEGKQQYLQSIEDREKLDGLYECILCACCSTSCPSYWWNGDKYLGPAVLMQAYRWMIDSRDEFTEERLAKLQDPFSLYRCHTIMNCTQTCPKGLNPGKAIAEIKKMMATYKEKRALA
T3 sequence (Q641Z9 30-169): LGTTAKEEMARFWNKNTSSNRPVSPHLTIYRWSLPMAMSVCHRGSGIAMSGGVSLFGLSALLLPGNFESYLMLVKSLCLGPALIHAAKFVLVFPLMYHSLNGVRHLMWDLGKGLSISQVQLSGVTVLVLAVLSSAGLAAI
T3 sequence (Q6PCT8 57-159): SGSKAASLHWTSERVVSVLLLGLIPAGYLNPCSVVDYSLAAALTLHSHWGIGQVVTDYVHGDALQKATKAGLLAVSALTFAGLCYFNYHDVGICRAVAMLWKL
T3 sequence (Q920L2 35-656 partner): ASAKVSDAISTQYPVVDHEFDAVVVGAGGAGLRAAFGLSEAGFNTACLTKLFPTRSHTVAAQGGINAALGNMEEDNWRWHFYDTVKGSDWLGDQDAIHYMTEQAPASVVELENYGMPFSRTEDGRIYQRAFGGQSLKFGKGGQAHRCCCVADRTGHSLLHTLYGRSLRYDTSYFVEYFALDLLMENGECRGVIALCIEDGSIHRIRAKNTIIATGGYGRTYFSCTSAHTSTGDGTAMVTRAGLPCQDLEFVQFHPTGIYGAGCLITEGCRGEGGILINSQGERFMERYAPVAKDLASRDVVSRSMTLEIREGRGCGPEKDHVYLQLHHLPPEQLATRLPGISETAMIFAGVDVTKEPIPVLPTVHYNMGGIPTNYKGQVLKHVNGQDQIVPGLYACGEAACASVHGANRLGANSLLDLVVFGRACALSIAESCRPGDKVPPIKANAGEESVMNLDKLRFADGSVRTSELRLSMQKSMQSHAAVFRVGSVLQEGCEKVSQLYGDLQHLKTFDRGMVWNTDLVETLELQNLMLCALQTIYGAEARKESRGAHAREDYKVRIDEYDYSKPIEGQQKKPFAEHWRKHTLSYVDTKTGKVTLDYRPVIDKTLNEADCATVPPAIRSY

SMILES | pIC50 [1] | pIC50 [2] | pIC50 [3]
O=C(NCCc1ncc(C(F)(F)F)cc1Cl)c1ccccc1C(F)(F)F [fluopyram] | 8.5 | – | –
CC(C)Oc1cccc(NC(=O)c2ccccc2C(F)(F)F)c1 [flutolanil] | 6.5 | 6.0 | –
COc1[nH]c(=O)c(C(=O)[C@@H](C)C[C@H](C)[C@@H](Cl)CCl)c(O)c1OC [Atpenin A5] | 7.7 | 8.1 | 8.2
